The record followed here is patent publication US20230227466A1, “SUBSTITUTED THIENOPYRIMIDINES THAT INTERACT WITH THE RAS SUPERFAMILY FOR THE TREATMENT OF CANCERS, INFLAMMATORY DISEASES, RASOPATHIES, AND FIBROTIC DISEASE” (SHY Therapeutics, LLC, priority 2020, published 2023).

Assay [1] deals with Akt phosphorylation in Panc-1 cells. In words: Western AKT cell-based phosphorylation assay. Details: species or system human. As to conditions: at 10 μM, values in brackets < > are activation %, not inhibition. The method, then:
Human Tumor-Derived Pancreatic Cancer Cell Line Panc-1 was Purchased from
American Type Culture Collection and grown in complete DMEM-High Glucose supplemented with penicillin (100 U/mL), streptomycin (100 μg/mL), and 10% heat-inactivated FBS at 37° C. in a humidified incubator with 5% CO2.
Method: Cells were plated at 350000 cells/well density in a 12-well plate, allowed 3 hours to adhere to the plate, then starved in the appropriate medium in the presence of 0.5% FBS overnight. The small molecules to be tested were added to the cells in the final concentration of 10 μM in the presence of 0.3% DMSO for 6 hours incubation at 37° C. Next, cells were stimulated with 1.5 ng/ml EGF for 15 minutes then cells were lysed with lysis buffer containing 1% Triton X-100, EDTA, and Halt™ Protease & Phosphatase Inhibitor Cocktail (Thermo Scientific). Protein concentration was assessed by BCA protein assay (Thermo Scientific). Phosphorylation level of Akt was determined by western blot.
Western blot protocol: Equal amounts of protein (15-50 μg) were separated by SDS-PAGE and transferred to nitrocellulose membranes (Invitrogen by Thermo Fisher Scientific). The membrane was stained with Ponceau S Stain (Boston BioProducts) to verify uniform protein loading. Membranes were blocked with 10% milk and phosphorylation levels of Akt were assessed by incubating overnight at 4° C. with anti-phospho-Akt (Ser473) antibody (Cell Signaling) followed by HRP-conjugated secondary antibody (Jackson Immunoresearch, West Grove, Pa.). Bands were incubated in Amersham ECL Prime Western Blotting Detection Reagent (GE Healthcare) and visualized using the ChemiDoc MP imaging system (Bio-Rad).

In assay [2] the test system is MIA-PaCa-2 pancreatic cancer cell line (KRAS G12C). In words: Cell proliferation assay (CellTiter 96 Aqueous One). It counts as cell-based. Conditions: Homo sapiens; for IC50: MIA PaCa-2, MIA PaCa-2; for inhibition at 10 µM: MIA PaCa-2, read-out: % inh cell proliferation (10 μM) in MIA PaCa-2. An outline of the steps: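 Percent inhibition of proliferation is derived from MTS absorbance data. Cells seeded at 2000–5000 per well were grown overnight before treatment. Compounds, at 10 μM final or in dilution series, stayed on cells for 2–4 days in medium containing 10% FBS and 0.3% DMSO.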

Some results are limits rather than exact numbers.

As for `Cc1c(-c2ccn(C(C)C)n2)sc2nc(-c3nccn3C)nc(NCc3c[nH]cn3)c12` [Compound 59, N-((1H-Imidazol-4-yl)methyl)-6-(1-isopropyl-1H-pyrazol-3-yl)-5-methyl-2-(1-methyl-1H-imidazol-2-yl)thieno[2,3-d]pyrimidin-4-amine], in assay [1], the “% inh of AKT phosphorylation in PANC-1” value is 0 (0% inhibition). For the same compound, in assay [2], the IC50 is 5 to 10 µM and the inhibition at 10 µM lay in the range of 51 to 75%.
With `CO[C@H]1CC[C@@H](Nc2nc(-c3nccn3C)nc3sc(-c4cc[nH]n4)c(-c4ccccc4)c23)C1` (racemic) [Example 1, Rac-N-((1R,3S)-3-methoxycyclopentyl)-2-(1-methyl-1H-imidazol-2-yl)-5-phenyl-6-(1H-pyrazol-3-yl)thieno[2,3-d]pyrimidin-4-amine], the “% inh of AKT phosphorylation in PANC-1” value in assay [1] was 0 (0% inhibition). Further, in assay [2], the IC50 was over 10 µM and the inhibition at 10 µM is 0%.
Taken in the same sequence, the figures for `Cc1sc2c(O)nc(-c3ccccn3)nc2c1-c1ccccn1` [Compound 26, 6-Methyl-2,7-di(pyridin-2-yl)thieno[3,2-d]pyrimidin-4-ol] were 0 (0% inhibition), 5 to 10 µM and 51 to 75%.
Take `COCCn1cnc(-c2nc(O)c3scc(-c4ccccn4)c3n2)c1` [Compound 78, 2-(1-(2-Methoxyethyl)-1H-imidazol-4-yl)-7-(pyridin-2-yl)thieno[3,2-d]pyrimidin-4-ol]: the “% inh of AKT phosphorylation in PANC-1” value in assay [1] was 0 (0% inhibition). In addition, in assay [2], the IC50 is 5 to 10 µM and the inhibition at 10 µM lay in the range of 51 to 75%.
Take `COC1CCCN(c2nc(-c3nccn3C)nc3sc(-c4ccn(C(C)C)n4)c(C(F)(F)F)c23)C1` (racemic) [Compound 75, Rac-6-(1-Isopropyl-1H-pyrazol-3-yl)-4-(3-methoxypiperidin-1-yl)-2-(1-methyl-1H-imidazol-2-yl)-5-(trifluoromethyl)thieno[2,3-d]pyrimidine]: the “% inh of AKT phosphorylation in PANC-1” value in assay [1] was 0 (0% inhibition). In assay [2], the half-maximal inhibitory concentration (IC50) was in the range of 5 to 10 µM and the inhibition at 10 µM lay within 76 to 100%.
As for `CO[C@H]1C[C@@H](Nc2nc(-c3nccn3C)nc3sc(-c4ccn(C(C)C)n4)c(C)c23)C[C@H]1OC` [Compound 42, N-((1r,3R,4S)-3,4-Dimethoxycyclopentyl)-6-(1-isopropyl-1H-pyrazol-3-yl)-5-methyl-2-(1-methyl-1H-imidazol-2-yl)thieno[2,3-d]pyrimidin-4-amine], the “% inh of AKT phosphorylation in PANC-1” value in assay [1] was “<D>”. For the same compound, in assay [2], the IC50 is 5 to 10 µM and the inhibition at 10 µM is 51 to 75%.
Taken in the same sequence, the figures for `Cc1c(-c2ccn(C(C)C)n2)sc2nc(-c3nccn3C)nc(NCc3ncc[nH]3)c12` [Compound 57, N-((1H-Imidazol-2-yl)methyl)-6-(1-isopropyl-1H-pyrazol-3-yl)-5-methyl-2-(1-methyl-1H-imidazol-2-yl)thieno[2,3-d]pyrimidin-4-amine] were 0 (0% inhibition), 5 to 10 µM and 51 to 75%.
`CO[C@H]1CC[C@@H](Nc2nc(-c3nccn3C)nc3sc(-c4ccn(C(C)C)n4)c(C(F)(F)F)c23)C1` (racemic) [Compound 73, Rac-6-(1-isopropyl-1H-pyrazol-3-yl)-N-((1R,3S)-3-methoxycyclopentyl)-2-(1-methyl-1H-imidazol-2-yl)-5-(trifluoromethyl)thieno[2,3-d]pyrimidin-4-amine]: the “% inh of AKT phosphorylation in PANC-1” value in assay [1] is given as “A (1-25% inhibition)”. Also, in assay [2], the IC50 was in the range of 1 to 4.99 µM and the inhibition at 10 µM lay within 76 to 100%.
For `CO[C@H]1CC[C@@H](Nc2nc(C(=O)Nc3ccccn3)nc3sccc23)C1` (racemic) [Compound 16, rac-4-(((1R,3S)-3-Methoxycyclopentyl)amino)-N-(pyridin-2-yl)thieno[2,3-d]pyrimidine-2-carboxamide], in that order: 0 (0% inhibition), over 10 µM and 1 to 25%.
Turning to `CO[C@H]1C[C@H](Nc2nc(-c3nccn3C)nc3sc(-c4ccn(C(C)C)n4)c(C)c23)C[C@H]1OC` [Compound 43, N-((1s,3R,4S)-3,4-Dimethoxycyclopentyl)-6-(1-isopropyl-1H-pyrazol-3-yl)-5-methyl-2-(1-methyl-1H-imidazol-2-yl)thieno[2,3-d]pyrimidin-4-amine], in assay [1], the “% inh of AKT phosphorylation in PANC-1” value is “<D>”. Also, in assay [2], the IC50 lay in the range of 5 to 10 µM and the inhibition at 10 µM is 51 to 75%.
As to `CO[C@H]1CC[C@@H](Nc2nc(C(N)=O)nc3sccc23)C1` (racemic) [Compound 11, Rac-4-(((1R,3S)-3-methoxycyclopentyl)amino)thieno[2,3-d]pyrimidine-2-carboxamide], the “% inh of AKT phosphorylation in PANC-1” value in assay [1] is given as 0 (0% inhibition). In addition, in assay [2], the IC50 is over 10 µM and the inhibition at 10 µM lay in the range of 1 to 25%.
`COCC1CN(c2nc(-c3nccn3C)nc3sc(-c4ccn(C(C)C)n4)c(C)c23)CCO1` (racemic) [Compound 45, rac-4-(6-(1-Isopropyl-1H-pyrazol-3-yl)-5-methyl-2-(1-methyl-1H-imidazol-2-yl)thieno[2,3-d]pyrimidin-4-yl)-2-(methoxymethyl)morpholine]: the “% inh of AKT phosphorylation in PANC-1” value in assay [1] is “<D>”. Also, in assay [2], the IC50 fell in the range of 5 to 10 µM and the inhibition at 10 µM was 26 to 50%.
For `COCCn1ccnc1-c1nc(N[C@H]2C[C@@H](OC)C2)c2ccsc2n1` [Compound 9, N-((1s,3s)-3-Methoxycyclobutyl)-2-(1-(2-methoxyethyl)-1H-imidazol-2-yl)thieno[2,3-d]pyrimidin-4-amine], the “% inh of AKT phosphorylation in PANC-1” value in assay [1] is listed as 0 (0% inhibition). Further, in assay [2], the IC50 is over 10 µM and the inhibition at 10 µM lay in the range of 1 to 25%.
Taken in the same sequence, the figures for `COCCn1ccnc1-c1nc(N[C@@H]2CC[C@H](OC)C2)c2ccsc2n1` (racemic) [Compound 8, Rac-N-((1R,3S)-3-methoxycyclopentyl)-2-(1-(2-methoxyethyl)-1H-imidazol-2-yl)thieno[2,3-d]pyrimidin-4-amine] were 0 (0% inhibition), over 10 µM and 26 to 50%.
Taken in the same sequence, the figures for `CO[C@H]1CC[C@@H](Nc2nc(-c3nccn3C)nc3sc(-c4ccn(C(C)C)n4)c(C)c23)C1` [Compound 32, 6-(1-Isopropyl-1H-pyrazol-3-yl)-N-((1R,3S)-3-methoxycyclopentyl)-5-methyl-2-(1-methyl-1H-imidazol-2-yl)thieno[2,3-d]pyrimidin-4-amine] were 0 (0% inhibition), under 1 µM and 76 to 100%.
Consider `CC(C)OCCn1ccnc1-c1nc(O)c2scc(-c3ccccn3)c2n1` [Compound 82, 2-(1-(2-Isopropoxyethyl)-1H-imidazol-2-yl)-7-(pyridin-2-yl)thieno[3,2-d]pyrimidin-4-ol], for which, in assay [1], the “% inh of AKT phosphorylation in PANC-1” value is “<D>”. Moreover, in assay [2], the IC50 lay in the range of 1 to 4.99 µM and the inhibition at 10 µM lay in the range of 76 to 100%.
In the case of `O=C(c1nc(O)c2scc(-c3ccccn3)c2n1)N1CCCC1` [Compound 19, (4-Hydroxy-7-(pyridin-2-yl)thieno[3,2-d]pyrimidin-2-yl)(pyrrolidin-1-yl)methanone], the “% inh of AKT phosphorylation in PANC-1” value in assay [1] is 0 (0% inhibition). For the same compound, in assay [2], the IC50 is over 10 µM and the inhibition at 10 µM was determined as 0%.

For orientation: IC50 means the concentration that inhibits the measured activity by half. Higher therefore signals a need for much substance.
